Where “and” joins values, the source holds several entries; their conditions need not be identical. Equal entries are not always repeated. Where two headings read alike, the source gives them in different places.
How the values were obtained:
AbyU [1] = target: T1, AbyU (Micromonospora maris, UniProt Z9P124SIT8, F95Y, form not given); experiment: Steady-state kinetics of the AbyU catalysed conversion of 5 to 6 (Michaelis–Menten fit); format: biochemical, Micromonospora maris AB-18-032
Method: Fig. 5 Burst phase characterisation of the AbyU catalysed conversion of 5 to 6. (a) Example of the transient observed (blue) in the reaction of 54 μM 5 with 1 μM AbyU, shown on a logarithmic scale with a linear scale shown inset for comparison. The transient is fitted to eqn (3) (black line, see Fig. S9 ^† for fitting analysis). (b) The rate of turnover in each burst phase as a function of the concentration of 5. Data for kburst1 is fitted to a one-step binding model (eqn (4)) and kburst2 is fitted to a two-step binding model (eqn (5)). (c) Steady-state kinetics fitted to the Michaelis–Menten equation (eqn (S1) ^†). […] This is perhaps unsurprising, as the conformationally constricted product must by necessity dissociate from the ‘closed’ active site. Steady-state kinetics reveal the impact that product release has upon the overall rate. […] Stopped-Flow (SF) experiments were performed using a Hi-Tech Scientific KinetAsyst Stopped-Flow System spectrophotometer (TgK Scientific, Bradford on Avon, UK). […] This ensured a high number of readings in the first seconds of the experiment. […] The amplitude of the change in absorbance was converted to concentration using the following measured absorbance coefficient for substrate 5: ε325 nm = 13 200 M^−1 cm^−1 and the following measured absorbance coefficient for product 6: ε325 nm = 1085 M^−1 cm^−1. […]

[2] = Uncatalysed (spontaneous) cyclisation of substrate 5, stopped-flow; format: physicochemical; details: SF buffer, no enzyme, 10 s, 20 °C, pH 7.5, 10% acetonitrile
Method: Stopped-Flow (SF) experiments were performed using a Hi-Tech Scientific KinetAsyst Stopped-Flow System spectrophotometer (TgK Scientific, Bradford on Avon, UK). Both syringe 1 and 2 were washed with ddH2O and SF buffer (18 mM Tris–HCl, 135 mM NaCl, 10% acetonitrile, pH 7.5). 10% acetonitrile was maintained in both syringes at all times to ensure solubility of the substrate. The stop-flow was zeroed and references were taken using SF buffer in each syringe for burst phase kinetics. Purified recombinant AbyU in SEC buffer (20 mM Tris–HCl, 150 mM NaCl, pH 7.5), was diluted to a final concentration of 800 μM AbyU in SF buffer. […] This ensured a high number of readings in the first seconds of the experiment. […]
Results were fitted using Graphpad Prism. […] The amplitude of the change in absorbance was converted to concentration using the following measured absorbance coefficient for substrate 5: ε325 nm = 13 200 M^−1 cm^−1 and the following measured absorbance coefficient for product 6: ε325 nm = 1085 M^−1 cm^−1. […] Initial concentrations of substrate 5 were calculated from the absorbance at t = 0, to account for uncatalysed substrate turnover, and the tendency of the substrate to have a weak affinity with the plastic present in the stop-flow apparatus. […] The slope of the line was determined for each substrate concentration and averaged over 3–5 repeats.

AbyU [3] = target: T1, AbyU; experiment: Single turnover stopped-flow kinetics of the AbyU catalysed conversion of 5 to 6 (excess enzyme, absorbance 325 nm); format: biochemical, Micromonospora maris AB-18-032
Text: (§1) To further investigate the AbyU catalysed reaction stopped-flow kinetic studies were undertaken employing substrate 5. […] This feature is lost upon cyclisation and thus constitutes a viable spectrophotometric probe to monitor the AbyU catalysed conversion of substrate 5 to product 6 (Fig. 1b). […] We assessed the quality of the fit from the plotted residuals.
(§2) As the concentration of 5 increases, a concomitant decrease in the rate constants kobs1 and kobs2 is observed. […] These different conformational populations cannot be individually resolved using ensemble kinetic measurements unless their rate constants differ by at least an order of magnitude, therefore, the observed rate constant reflects average behaviour. The relative equilibrium saturation constants observed for two different binding conformations can be obtained by examining the dependence of kobs2 on (Fig. 3b). From Fig. 3b, the data present as apparent substrate inhibition. In this case, we can envisage that the ‘slow’ reacting species effectively acts as a weak inhibitor relative to the ‘fast’ reacting species, thus presenting as apparent substrate inhibition.
(§3) It should be noted that the species reflected by the third exponential phase has a larger equilibrium constant than the faster reacting species, with a rate of reaction approximately 20-fold slower than the steady-state rate of the enzyme (Fig. S6 ^†). As it represents an insignificant component of the steady-state reaction, we have not analysed this phase any further.
(§4) Stopped-Flow (SF) experiments were performed using a Hi-Tech Scientific KinetAsyst Stopped-Flow System spectrophotometer (TgK Scientific, Bradford on Avon, UK). Both syringe 1 and 2 were washed with ddH2O and SF buffer (18 mM Tris–HCl, 135 mM NaCl, 10% acetonitrile, pH 7.5). 10% acetonitrile was maintained in both syringes at all times to ensure solubility of the substrate. The stop-flow was zeroed and references were taken using SF buffer in each syringe for burst phase kinetics. Purified recombinant AbyU in SEC buffer (20 mM Tris–HCl, 150 mM NaCl, pH 7.5), was diluted to a final concentration of 800 μM AbyU in SF buffer. This solution of AbyU was placed in syringe 1 to obtain references for the single turnover experiments. For the multiple turnover experiments, AbyU was added to syringe 1 at a concentration of 2 μM (diluted in SF buffer). Likewise, substrate 5 was diluted in SF buffer to double the reaction concentration and placed in syringe 2. 50 μL from each syringe was injected into the mixing chamber and measurement immediately commenced. Reactions were observed using a logarithmic timebase over either 1000 s or 10 s. For the 1000 s experiments, the timeframe was split into 15 cycles, each with 200 points, each of which was distributed in a logarithmic manner. This ensured a high number of readings in the first seconds of the experiment. […] This was compounded by the weak affinity of substrate 5 for the plastic components in the SF system, rendering it impossible to precisely replicate the concentration of 5 in the reaction chamber over multiple syringes. To measure the uncatalysed rate of substrate cyclisation, the stop flow was zeroed and references were taken using SF buffer in both syringes. Varying concentrations of substrate 5 were added to syringe 2 and measurements were taken using a linear time base over 10 seconds. All reactions were performed at 20 °C.
(§5) Results were fitted using Graphpad Prism. […]

[4] = target: AbyU (Micromonospora maris); experiment: as above; format: biochemical, Micromonospora maris AB-18-032; details: single turnover, 10 s, 20 °C, pH 7.5, 10% acetonitrile, eqn (2); read-out: Ki from substrate inhibition fit of kobs2 vs [5] (binding affinity for slower reacting species)
Text: as §1, §2, §3, §4, §5

AbyU [5] = target: T1, AbyU; experiment: Multiple turnover (burst phase) stopped-flow kinetics of the AbyU catalysed conversion of 5 to 6; format: biochemical, Micromonospora maris AB-18-032
Method: To formally identify the rate-limiting step in the AbyU catalysed cycloaddition reaction, a multiple turnover kinetics experiment was undertaken. The stopped-flow transients (Fig. 5a) reveal two distinguishable burst phases when fitted to eqn (3), a derivative of eqn (1), which incorporates a linear phase to account for multiple turnovers in the steady-state.3 [drawing 3]
When the data for kburst1 are fitted to eqn (4), kon and koff can be determined to be 0.88 ± 0.03 μM^−1 s^−1 and 3.4 ± 0.71 s^−1, for substrate binding and dissociation respectively, in this conformation.4 kburst1 = kburst1on[S] + kburst1off
The relationship between the slower burst phase, kburst2 and substrate concentration, in contrast, fits well to, and is highly representative of, a two-step binding interaction (eqn (5) (ref. [32])).5 kburst2 = 1/2(p − q)where:5.1 p = kburst2on1 × [S] + kburst2off1 + kburst2on2 + kburst2off25.2 [drawing 4] 5.3 r = kburst2on1 × [S] × kburst2on2 + kburst2off1 × kburst2off2 + kburst2on1 × [S] × kburst2off2
as §4
Results were fitted using Graphpad Prism. Data obtained before 2 ms was discarded, reflecting the dead-time of the instrument. Data were fit to equations as outlined in the text. The 10 s single turnover kinetic data were fitted to two exponentials with a sloping baseline (eqn (3)). […] To circumvent this, the data between 3 s and 10 s were separately fitted to a straight line to determine the initial rate of k3. In order to fully analyse the change in the reaction rate with respect to the concentration of 5, 3–6 transients at each substrate concentration were taken and the rate and amplitude parameters derived from the fit appropriate for each transient (Fig. S4 and S9 ^†). The background rate of reaction (Fig. S11 ^†) was removed from the steady-state reaction and from the linear portion of k3. The other exponential phases occur too rapidly for the background rate of reaction to have an appreciable influence on the data. […]

[6] = burst phase 1, eqn (4), 20 °C, pH 7.5
[7] = burst phase 2, two-step binding, eqn (5), 20 °C, pH 7.5

T1 sequence (Z9P124SIT8 1-160 F95Y): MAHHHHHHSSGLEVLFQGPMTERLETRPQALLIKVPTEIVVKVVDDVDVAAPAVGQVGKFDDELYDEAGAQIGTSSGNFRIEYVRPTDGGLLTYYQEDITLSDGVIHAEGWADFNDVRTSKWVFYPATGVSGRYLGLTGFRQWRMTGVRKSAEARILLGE
Chain of AbyU (Micromonospora maris) (Z9P124SIT8 1-160 F95Y): as above

C=C1OC(=O)C(C(=O)[C@H](C)C[C@H](C)C(=O)/C=C/C=C/C=C/C)=C1OC [compound 5]
kcat slower than the initial rate of kburst1 (AbyU [1]; ratio): around 230 times | kcat (AbyU [1]; steady-state, 20 °C, pH 7.5, 10% acetonitrile): 0.116 ± 0.005 s⁻¹ | kspont (spontaneous cyclisation of 5) [2]: 1250 ± 17 M⁻¹ s⁻¹ | k3 (AbyU [3]; binding in ES3 conformation (third phase), 20 °C, pH 7.5): ≈5.7 × 10^−4 ± 3.8 × 10^−5 μM^−1 s^−1 | k−3 (AbyU [3]; dissociation from ES3 conformation (third phase), 20 °C, pH 7.5): ≈6.9 × 10^−3 ± 1.9 × 10^−3 s^−1 | rate of third exponential phase slower than the steady-state rate of the enzyme (AbyU [3]; ratio): approximately 20 fold | Km (AbyU [3]; single turnover, 10 s, 20 °C, pH 7.5, 10% acetonitrile, eqn (2), read-out: Km from substrate inhibition fit of kobs2 vs [5] (approximation of binding affinity for faster-reacting conformation(s))): 13.2 ± 3.2 µM | Ki [4]: 54900 ± 14500 nM | k5 (cyclisation once substrate is bound) (AbyU [5]; 20 °C, pH 7.5): N.D. (very quick) | Kd (AbyU [5]; apparent binding constant, two-step route, read-out: Kapp = K2 × K4): 1300 nM | Kd (AbyU [5]; binding constant, ES2 conformation, read-out: K2 = k−2/k2): 1970 ± 4240 nM | Kd (AbyU [5]; binding constant, ES conformation, read-out: K1 = k−1/k1): 3860 ± 940 nM | k1 (kon, kburst1, substrate binding, one-step) (AbyU [5]; [6]): 880000 ± 30000 M⁻¹ s⁻¹ | k−1 (koff, kburst1, substrate dissociation) (AbyU [5]; [6]): 3.4 ± 0.71 s⁻¹ and 3.41 ± 0.71 s⁻¹ | k2 (on rate, kburst2, sub-optimal conformation) (AbyU [5]; [7]): 360000 ± 460000 M⁻¹ s⁻¹ | k4 (rearrangement within active site to most productive conformation) (AbyU [5]; [7]): 1.37 ± 2.38 s⁻¹ | k−2 (off rate, kburst2, sub-optimal conformation) (AbyU [5]; [7]): 0.71 ± 0.62 s⁻¹ | k−4 (AbyU [5]; burst phase 2, two-step binding, reverse rearrangement, 20 °C, pH 7.5): 0.90 ± 2.29 s⁻¹ | K4 (k−4/k4) (AbyU [5]; equilibrium constant of rearrangement): 0.66 ± 2.81
